Test results as given in patent US12691101B2, “Compound and method for preventing or treating of respiratory diseases comprising the same as an active ingredient” (YONSEI UNIVERSITY, UNIVERSITY - INDUSTRY FOUNDATION (UIF), priority 2019, dated 2026).

Columns and labels:
pendrin [1] = target: T1, pendrin (Homo sapiens, UniProt O43511); test: Pendrin-mediated Cl^−/HCO3^− exchange in IL-4-treated HNE and HBE cells; assay type: cell-based
T1 construct: endogenous in cells; host or cells: primary HNE and HBE cells, IL-4 treated
Description: Chinese hamster ovary (CHO)-K1 cells were maintained in a DMEM medium containing 10% fetal bovine serum (FBS), 100 units/ml penicillin and 100 100 μg/ml streptomycin. CHO-K1 cells were stably transfected with pcDNA3.1 encoding halide sensor YFP-H148Q/I152L/F46L and human wild-type (WT)-pendrin. For distribution of primary culture of human nasal cavity epithelium (HNE) cells, passage-2 cells were seeded into transwell-transparent culture inserts with a pore size of 0.45 μm (Costar Co., Cambridge, MA) at a density of 2×10^5 cells/cm^2. […]
For measurement of Cl^−/HCO3^− exchange activity, intracellular pH (pHi) was measured in WT-pendrin expressing CHO-K1 and HNE cells using pH sensor SNARF5-AM (Molecular Probes). The cells were treated with 5 μM SNARF5-AM for 30 minutes, and then were equipped in a perfusion chamber on the stage of a reverse fluorescence microscope (Nikon, Tokyo, Japan) equipped with a cooled charge-coupled device camera (Zyla sCMOS), image acquisition and analysis software (Meta Imaging Series 7.7). […] SNARF5 fluorescence was recorded at 515±10 nm of the excitation wavelength and 640±10 nm of the emission wavelength, and intracellular pH calibration was performed with a solution including 145 mM KCl, 10 mM HEPES and […] nigericin having a calibrated pH to 6.2-7.6.

pendrin [2] = test: Protein expression measurement in IL-4-treated HNE cells, pendrin; assay type: cell-based, human; details: long-term treatment
Description: CHO-K1 and HNE cells were lysed with a cytolytic buffer (50 mM Tris-HCl, pH 7.4, 1% Nonidet P-40, 0.25% sodium deoxycholate, 150 mM NaCl, 1 mM EDTA, 1 mM Na3VO4, and protease inhibiting mixture). The total cell lysates were under centrifugation at 15,000×g for 10 minutes at 4° C. to remove cellular debris and the same amount (50 μg protein or 5 μg protein/lane) of supernatant protein was isolated on 4-12% Tris-glycine precast gel (KOMA BIOTECH, Seoul, Korea) and transferred to PVDF membrane (Millipore, Billerica, MA, USA). The membrane was blocked with 5% fat-free skim milk in TBS containing 0.1% Tween 20 (TBST) or 5% bovine serum albumin in TBS at a room temperature for 1 hour. Then, the membrane was cultured at 4° C. overnight with a primary antibody against pendrin (sc-50346; Santa Cruz Biotechnology, Santa Cruz, CA, USA), NF-κB p65 (4764S; Cell Signaling Technology, Danvers, MA, USA), p-NF-κB p65 (3033S; Cell Signaling Technology), IkBα (9242S; Cell Signaling Technology), p-IkBα (9141S; Cell Signaling Technology), β-actin (sc-47778; Santa Cruz Biotechnology), or AN01 (ab64085; Abeam). After washing with 0.05% Tween 20 (TBST) in PBS, the blot was additionally cultured with a secondary antibody (Cell Signaling Technology, Danvers, MA) at a room temperature for 60 minutes. […]

T1 sequence (O43511 whole entry): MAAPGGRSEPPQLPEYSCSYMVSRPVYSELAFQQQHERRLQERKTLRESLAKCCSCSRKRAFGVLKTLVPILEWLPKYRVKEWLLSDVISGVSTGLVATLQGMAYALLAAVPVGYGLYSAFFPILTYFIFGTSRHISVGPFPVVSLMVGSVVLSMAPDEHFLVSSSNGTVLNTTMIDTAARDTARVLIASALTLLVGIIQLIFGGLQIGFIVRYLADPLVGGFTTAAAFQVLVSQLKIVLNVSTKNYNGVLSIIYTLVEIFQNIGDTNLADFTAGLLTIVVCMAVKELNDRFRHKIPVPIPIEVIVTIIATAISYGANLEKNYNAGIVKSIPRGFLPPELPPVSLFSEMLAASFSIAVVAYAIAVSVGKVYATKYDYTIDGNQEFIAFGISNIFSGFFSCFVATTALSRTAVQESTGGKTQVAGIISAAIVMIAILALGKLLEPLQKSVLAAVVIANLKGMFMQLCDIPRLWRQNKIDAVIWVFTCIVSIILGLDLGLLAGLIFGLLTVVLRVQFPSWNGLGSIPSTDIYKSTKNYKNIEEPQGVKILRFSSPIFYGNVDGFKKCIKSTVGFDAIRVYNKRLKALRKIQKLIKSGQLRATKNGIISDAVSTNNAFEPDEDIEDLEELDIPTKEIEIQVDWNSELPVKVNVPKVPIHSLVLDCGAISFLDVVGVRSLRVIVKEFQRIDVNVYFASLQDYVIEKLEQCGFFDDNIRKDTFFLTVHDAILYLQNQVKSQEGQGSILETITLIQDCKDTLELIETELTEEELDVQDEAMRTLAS

With `CC(C)(C)c1ccc(C2=NC(=Cc3cccs3)C(=O)O2)cc1` [F56, 2-(4-(tert-butyl)phenyl)-4-(thiophen-2-ylmethylene)oxazol-5(4H)-one] the “inhibition of pendrin-mediated Cl^−/HCO3^− exchange activity” value (pendrin [1]; IL-4-treated HNE and HBE cells, acute treatment) was “potentially inhibited”, the “IL-4-induced upregulation of the Cl^−/HCO3^− exchange activity” value (pendrin [1]; long-term treatment, HNE cells) was “strongly reduced” and the “pendrin protein expression level” value (pendrin [2]) was “strongly reduced”.
